Experiment [1] addresses T1, recombinant human FLAP protein (Homo sapiens, UniProt P20292).
T1 construct: made in house; host or cells: Sf9 insect cells (membrane fraction, 100,000 x g pellet)
T1 sequence (P20292 1-161): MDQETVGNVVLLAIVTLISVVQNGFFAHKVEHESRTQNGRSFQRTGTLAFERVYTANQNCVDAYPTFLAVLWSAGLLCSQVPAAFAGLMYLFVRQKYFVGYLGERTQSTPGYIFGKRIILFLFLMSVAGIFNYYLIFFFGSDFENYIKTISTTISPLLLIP
Briefly: FLAP binding assay (SPA, displacement of [125I]L-691,831). To be noted: membranes of sf9 cells expressing human FLAP, [125I]L-691,831 probe; read-out: hFLAP binding IC50. The protocol:
Compounds are assessed for the ability to bind to FLAP in a binding assay that measures compound-specific displacement of an iodinated (^125I) FLAP inhibitor via a Scintillation Proximity Assay format (adapted from S. Charleson et al., Mol. Pharmacol., 1992, 41, 873-879).
Cell pellets produced from sf9 insect cells expressing recombinant human FLAP protein are resuspended in buffer A [15 mM Tris-HCl (pH 7.5), 2 mM MgCl2, 0.3 mM EDTA, 1 mM PMSF]. The cells are lysed with a Dounce homogenizer and the material is centrifuged at 10,000×g for 10 minutes. The supernatant is then collected and centrifuged at 100,000×g for 60 minutes. To prepare membrane protein for an assay, an aliquot of the 100,000×g pellet is resuspended in 1 ml of buffer A, Dounce homogenized, and finally subjected to polytron mixing (30 seconds). Membrane protein (25 μl, 5 μg) is mixed with WGA SPA beads (Amersham) and stirred for 1 h. To an assay plate (Perkin Elmer FlexiPlate) is added 25 μl of test compound prepared in Binding buffer [100 mM Tris (pH 7.5), 140 mM NaCl, 5% glycerol, 2 mM EDTA, 0.5 mM TCEP, 0.05% Tween 20], 25 μl of [^125I]L-691,831 (an iodinated analog of MK-591, Charleson et al. Mol. Pharmacol., 41, 873-879, 1992) and finally 50 μl of the bead/protein mixture. (final concentrations: beads, 200 μg/well; protein, 5μg/well; [^125I] probe, 0 08 nM/well(17 nCi/well). The plates are shaken for 2 h before reading on a Microbeta plate reader. Non-specific binding is determined by the addition of 10 μM cold L-691,831 compound.
Background: Loss of bound radioactivity is the signal in a displacement assay; it reports binding, not function.

Experiment [2] deals with synthesis of LTB4 in human whole blood. Kind of experiment: Human whole blood LTB4 production inhibition assay. The experiment is classed as cell-based. As to conditions: heparinized human whole blood, calcimycin 20 μM, plasma LTB4; read-out: HuWB IC50. Here is the method:
Compounds are additionally tested in a human whole blood assay to determine their ability to inhibit the synthesis of LTB4 in a cellular system. Compounds are combined with heparinized human whole blood and incubated for 15 minutes at 37° C. Calcimycin (20 μM final, prepared in phosphate-buffered saline, pH 7.4) is then added and the mixture is incubated for another 30 minutes at 37° C. The samples are centrifuged for 5 min at low speed (1500×g) and the plasma layer is removed. Plasma LTB4 concentrations are then measured using an antibody-based homogenous time-resolved fluorescence method (CisBio, Bedford, Mass.).

The structures appear in SMILES notation.

With `Nc1ncc(-c2ccc(C3(C(=O)Nc4nccs4)CCC3)cc2)cn1` [Example 200, 1-[4-(2-aminopyrimidin-5-yl)phenyl]-N-(1,3-thiazol-2-yl)cyclobutanaecarboxamide], the IC50 (commonly the concentration that inhibits the measured activity by half) in experiment [1] amounted to 19 nM; in experiment [2], 2010 nM. The matching figures for `Cc1nc(-c2ccc(NC(=O)C3(c4ccc(-c5cnc(N)nc5)cc4)CCOCC3)nc2)cs1` [Example 122, 4-[4-(2-aminopyrimidin-5-yl)phenyl]-N-[5-(2-methyl-1,3-thiazol-4-yl)pyridin-2-yl]tetrahydro-2H-pyran-4-carboxamide]: 9.53 nM and 1040 nM. The corresponding values for `CC(C)(C)c1nsc(NC(=O)C2(c3ccc(-c4cnc(N)nc4)cc3)CCOCC2)n1` [Example 124, 4-[4-(2-aminopyrimidin-5-yl)phenyl]-N-(3-tert-butyl-1,2,4-thiadiazol-5-yl)tetrahydro-2H-pyran-4-carboxamide] are 77.5 nM and 2170 nM. As for `N#Cc1ccc(NC(=O)C2(c3ccc(-c4cnc(N)nc4)nc3)CCC2)nc1` [Example 94, 1-[6-(2-aminopyrimidin-5-yl)pyridin-3-yl]-N-(5-cyanopyridin-2-yl)cyclobutanecarboxamide], the IC50 in experiment [1] is 65 nM; in experiment [2], 857 nM.

For the compound `O=C(Nc1ccncn1)C1(c2ccc(-c3cnc4[nH]ccc4c3)cc2)CCC1` [Example 188, N-(pyrimidin-4-yl)-1-[4-(1H-pyrrolo[2,3-b]pyridin-5-yl)phenyl]cyclobutanecarboxamide], the IC50 in experiment [1] stood at 1.65 nM; in experiment [2], 130 nM. The matching figures for `Nc1ncc(-c2ccc(C3(C(=O)Nc4cnc5ccccc5c4)CCOCC3)cc2)cn1` [Example 11, 4-[4-(2-aminopyrimidin-5-yl)phenyl]-N-(quinolin-3-yl)tetrahydro-2H-pyran-4-carboxamide]: 21.9 nM and above 3000 nM. Turning to `Nc1ncc(-c2ccc(C3(C(=O)Nc4ccc(N5CCOCC5)cc4)CCC3)cc2)cn1` [Example 246, 1-[4-(2-aminopyrimidin-5-yl)phenyl]-N-[4-(morpholin-4-yl)phenyl]cyclobutanecarboxamide], the IC50 in experiment [1] was determined as 34 nM. Same read-out and setting: the figure for `Cc1cc(C)nc(NC(=O)C2(c3ccc(-c4cnc(N)nc4)cc3)CCOCC2)c1` [Example 10, 4-[4-(2-aminopyrimidin-5-yl)phenyl]-N-(4,6-dimethylpyridin-2-yl)tetrahydro-2H-pyran-4-carboxamide] is 240 nM. Consider `CN(C)S(=O)(=O)c1cccc(NC(=O)C2(c3ccc(-c4cnc(N)nc4)cc3)CCOCC2)c1` [Example 77, 4-[4-(2-aminopyrimidin-5-yl)phenyl]-N-[3-(dimethylsulfamoyl)phenyl] tetrahydro-2H-pyran-4-carboxamide], for which the IC50 in experiment [1] was found to be 110 nM. Same read-out and setting: the figure for `Nc1ncc(-c2ccc(C3(C(=O)Nc4ccc5c(c4)OCO5)CCOCC3)cc2)cn1` [Example 9, 4-[4-(2-aminopyrimidin-5-yl)phenyl]-N-(1,3-benzodioxol-5-yl)tetrahydro-2H-pyran-4-carboxamide] is 200 nM; for `Nc1ncc(-c2ccc(C3(C(=O)Nc4cccc(S(=O)(=O)N5CCOCC5)c4)CCOCC3)cc2)cn1` [Example 35, 4-[4-(2-aminopyrimidin-5-yl)phenyl]-N-[3-(mopholin-4-ylsulfonyl)phenyl]tetrahydro-2H-pyran-4-carboxamide] it is 390 nM; for `CCOC(=O)c1sc(NC(=O)C2(c3ccc(-c4cnc(N)nc4)cc3)CCOCC2)nc1-c1ccccc1` [Example 19, ethyl 2-[({4-[4-(2-aminopyrimidin-5-yl)phenyl]tetrahydro-2H-pyran-4-yl}carbonyl)amino]-4-phenyl-1,3-thiazole-5-carboxylate] it is 120 nM. Turning to `Cc1cccc(-c2cnc(NC(=O)C3(c4ccc(-c5cnc(N)nc5)cc4)CCOCC3)nc2)c1` [Example 156, 4-[4-(2-aminopyrimidin-5-yl)phenyl]-N-[5-(3-methylphenyl)pyrimidin-2-yl]tetrahydro-2H-pyran-4-carboxamide], the IC50 in experiment [1] came to 490 nM. The same measure, in the same setting: the figure for `Nc1ncc(-c2ccc(C3(C(=O)Nc4n[nH]c(-c5ccccc5)n4)CCC3)cc2)cn1` [Example 243, 1-[4-(2-aminopyrimidin-5-yl)phenyl]-N-(5-phenyl-1H-1,2,4-triazol-3-yl)cyclobutanecarboxamide] is 22 nM. On the same count and under the same terms, the figure for `Cc1ccc(NC(=O)C2(c3ccc(-c4cnc(N)nc4)cc3)CCC2)cn1` [Example 249, 1-[4-(2-aminopyrimidin-5-yl)phenyl]-N-(6-methylpyridin-3-yl)cyclobutanecarboxamide] is 22.5 nM; for `NC(=O)c1ccc(NC(=O)C2(c3ccc(-c4cnc(N)nc4)cc3)CCC2)cn1` [Example 240, 5-[({1-[4-(2-aminopyrimidin-5-yl)phenyl]cyclobutyl}carbonyl)amino]pyridine-2-carboxamide] it is 4.4 nM. On the same count and under the same terms, the figure for `CC(C)(O)c1ccc(NC(=O)C2(c3ccc(-c4cnc(N)nc4)cc3)CCOCC2)nc1` [Example 159, 4-[4-(2-aminopyrimidin-5-yl)phenyl]-N-[5-(2-hydroxypropan-2-yl)pyridin-2-yl]tetrahydro-2H-pyran-4-carboxamide] is 420 nM. As for `Nc1ncc(-c2ccc(C3(C(=O)Nc4ccccn4)CCCCC3)cc2)cn1` [Example 160, 1-[4-(2-aminopyrimidin-5-yl)phenyl]-N-(pyridin-2-yl)cyclohexanecarboxamide], in experiment [1], the IC50 was determined as 13 nM. Consider `Cc1cnc(NC(=O)C2(c3ccc(-c4cnc(N)nc4)cc3)CCC2)s1` [Example 211, 1-[4-(2-aminopyrimidin-5-yl)phenyl]-N-(5-methyl-1,3-thiazol-2-yl)cyclobutanecarboxamide], for which, in experiment [1], the IC50 was determined as 23.5 nM. Same read-out and setting: the figure for `CC(=O)N1CCc2ccc(NC(=O)C3(c4ccc(-c5cnc(N)nc5)cc4)CCOCC3)cc21` [Example 29, N-(1-acetyl-2,3-dihydro-1H-indol-6-yl)-4-[4-(2-aminopyrimidin-5-yl)phenyl]tetrahydro-2H-pyran-4-carboxamide] is 190 nM; for `CC(C)C(C)(C(=O)Nc1ccncc1)c1ccc(-c2ccc(NCCO)nc2)cc1` (stereo not drawn) [Example 226, 2-(4-{6-[(2-hydroxyethyl)amino]pyridin-3-yl}phenyl)-2,3-dimethyl-N-(pyridin-4-yl)butanamide] it is 250 nM. The same measure, in the same setting: the figure for `Nc1ncc(-c2ccc(C3(C(=O)Nc4cccc(CN5CCCC5)c4)CCOCC3)cc2)cn1` [Example 50, 4-[4-(2-aminopyrimidin-5-yl)phenyl]-N-[3-(pyrrolidin-1-ylmethyl)phenyl]tetrahydro-2H-pyran-4-carboxamide] is 440 nM; for `Cc1nc(-c2ccc(NC(=O)C(c3ccc(-c4cnc(N)nc4)cc3)C3CCCC3)nc2)cs1` (stereo not drawn) [Example 248, 2-[4-(2-aminopyrimidin-5-yl)phenyl]-2-cyclopentyl-N-[5-(2-methyl-1,3-thiazol-4-yl)pyridin-2-yl]acetamide] it is 240 nM. As to `COc1nc(-c2ccc(C3(C(=O)Nc4ccc(-c5csc(C)n5)cn4)CCOCC3)cc2)cnc1N` [Example 181, 4-[4-(5-amino-6-methoypyrazin-2-yl)phenyl]-N-[5-(2-methyl-1,3-thiazol-4-yl)pyridin-2-yl]tetrahydro-2H-pyran-4-carboxamide], the IC50 in experiment [1] was found to be 110 nM.

Turning to `CS(=O)(=O)NC(=O)c1ccc(NC(=O)C2(c3ccc(-c4cnc(N)nc4)cc3)CCC2)nc1` [Example 105, 6-[({1-[4-(2-aminopyrimidin-5-yl)phenyl]cyclobutyl}carbonyl)amino]-N-(methylsulfonyl)pyridine-3-carboxamide], the IC50 in experiment [1] was 17.5 nM. Still for that read-out and setting: the figure for `COCCNc1ncc(-c2ccc(C3(C(=O)Nc4ccc(-c5csc(C)n5)cn4)CCOCC3)cc2)cn1` [Example 207, 4-(4-{2-[(2-methoxyethyl)amino]pyrimidin-5-yl}phenyl)-N-[5-(2-methyl-1,3-thiazol-4-yl)pyridin-2-yl]tetrahydro-2H-pyran-4-carboxamide] is 230 nM. Still for that read-out and setting: the figure for `Cc1nc(NC(=O)C2(c3ccc(-c4cnc(N)nc4)cc3)CCC2)sc1C` [Example 209, 1-[4-(2-aminopyrimidin-5-yl)phenyl]-N-(4,5-dimethyl-1,3-thiazol-2-yl)cyclobutanecarboxamide] is 13 nM.

These data come from patent publication US9073895B2 (Boehringer Ingelheim International GmbH, priority 2010, dated 2015).
